{"source": "patent US20070009537A1", "about": "“Antimicrobial activity of antibodies producing reactive oxygen species” (priority 2002, published 2007)", "molecules": {"B1": {"name": "RNase A: ribonuclease, non-immunoglobulin control protein (protein, UniProt P61823 27-150, looked up)", "Ribonuclease pancreatic": "KETAAAKFERQHMDSSTSAASSSNYCNQMMKSRNLTKDRCKPVNTFVHESLADVQAVCSQKNVACKNGQTNCYQSYSTMSITDCRETGSSKYPNCAYKTTQANKHIIVACEGNPYVPVHFDASV"}}, "key": {"[1]": {"assay": "H2O2 production by UV irradiation of antibody/protein samples (Amplex Red assay)", "format": "biochemical", "protocol": "Aliquots (10 μL) were removed at timed intervals throughout the assay. H2O2 concentration was determined by the amplex red method. Each data point is reported as the mean±SEM of at least duplicate measurements: • polyclonal (poly) immunoglobulin (Ig) G, human; O poly-IgG, horse; □ poly-IgG, sheep; ∇ monoclonal (m) IgG (WD1-6G6), murine; Δ poly-IgM, human; ⋄ mIgG (92H2), murine; ▪ β-galactosidase (β-gal); ▴ chick ovalbumin (OVA); ▾ α-lactalbumin (α-lact); ♦ bovine serum albumin (BSA).\nAn aliquot (20 μl) from the protein solution was removed and added into a well of a 96-well microtiter plate (Costar) containing reaction buffer (80 μl). Working solution (100 μl/400 μM Amplex Red reagent 1/2 units/ml horseradish peroxidase) was then added, and the plate was incubated in the dark for 30 min. The fluorescence of the well components was then measured using a CytoFluor Multiwell Plate Reader (Series 4000, PerSeptive Biosystems, Framingham, Mass.; Ex/Em: 530/580 nm). The hydrogen peroxide concentration was determined using a standard curve. All experiments were run in duplicate, and the rate is quoted as the mean of at least two measurements.\nThe resultant solution was transferred to a glass, screw-cap vial and irradiated with UV light for 30 min. The concentration of H2O2 was determined after 30 min."}, "E. coli XL1-blue": {"system": "E. coli XL1-blue", "assay": "Bactericidal assay (CFU recovery)", "format": "cell-based", "protocol": "(§1) In a typical experiment, a culture of E. coli (in log phase growth, OD600=0.2-0.3) was repeatedly pelleted (3×3,500 rpm) and resuspended in PBS (pH 7.4). The PBS suspended cells were then added to glass vials and cooled to 4° C. Hematoporphyrin IX (40 μM) and antibody (20 μM) were added and the vials were either placed on a light box (visible light, 2.8 mW cm^−2) or in the dark at 4° C. and incubated for 1 h. Viability was determined by recovery of colony forming units (CFUs) on agar plates. Each experiment was performed at least in duplicate.\nas §1, with “washed in PBS by pelleting” for “pelleted”, “rpm) the cells” for “rpm)”, “resuspending them” for “resuspended”"}, "E. coli": {"system": "E. coli", "assay": "Bactericidal assay (CFU recovery), strain not specified", "format": "cell-based", "protocol": "as §1\nas §1, with “washed in PBS by pelleting” for “pelleted”, “rpm) the cells” for “rpm)”, “resuspending them” for “resuspended”"}, "S. typhimurium": {"system": "S. typhimurium", "assay": "Bactericidal assay (CFU recovery)", "format": "cell-based, Salmonella typhimurium", "protocol": "In a typical experiment, a culture of S. typhimurium in log phase growth at OD600=0.2-0.3 was repeatedly pelleted (3×3,500 rpm) and resuspended in PBS (pH 7.4). The PBS suspended cells were then added to glass vials and cooled to 4° C. hematoporphyrin IX solution (40 μM) and antibody (20 μM) were added. The vials were placed either on a light box (visible light, 2.8 mW cm^−2) or in the dark at 4° C. Incubation was for 1 hour. Viability was determined by recovery of colony forming units (CFUs) on agar plates. Each experiment was performed with at least duplicate samples."}, "E. coli O112a,c": {"system": "E. coli O112a,c", "format": "cell-based", "details": "40 μM, white light 2.7 mW cm^−2, 1 h, PBS pH 7.4, 4±1° C.", "protocol": "as §1\nas §1, with “washed in PBS by pelleting” for “pelleted”, “rpm) the cells” for “rpm)”, “resuspending them” for “resuspended”"}, "[2]": {"assay": "Decomposition of O3 under aqueous conditions", "format": "physicochemical", "details": "PBS pH 7.4, 22° C., OD 260 nm", "protocol": "The rate of decomposition of O3 under the aqueous conditions employed was measured by the following method. Ozone, produced by a passage of O2 through a Polymetrics ozonizer, was bubbled for 2 min through a phosphate buffered saline (PBS, pH 7.4) solution in a quartz cuvette (1 cm^2) at room temperature. The time-dependent change in optical density was then measured at 260 nm (ε=2,700 M^−1 cm^−1) for at least 5 half lives in a Hitachi u.v./vis spectrophotometer equipped with a thermostatted rack at 22° C. See Takeuchi et al., Anal. Chim. Acta. 230, 183 (1990). […] The sensitivity of the assay was limited by spectrophotometer accuracy to±0.1% (˜1 μM) of the OD at t=0."}}, "note": "Entries after “also recorded” stand apart in the source; their conditions may differ. Where two headings read alike, the source gives them in different places."}
{"molecule": "chick ovalbumin: chick-egg ovalbumin", "values": [{"measurement": "ability to reduce 1O2 (produce reactive oxygen species from singlet oxygen), panel of other proteins", "setting": "[1]", "result": "one of the most efficient proteins at reducing ^1O2"}]}
{"molecule": "catalase", "values": [{"measurement": "protection against the bactericidal activity of non-specific antibodies", "setting": "E. coli XL1-blue; FIG. 17A, catalase 13 mU/mL", "result": "complete protection"}, {"measurement": "effect on bactericidal activity of non-specific antibodies", "setting": "E. coli; catalase 13 mU/mL, 11 non-specific murine monoclonal antibodies", "result": "completely attenuated"}]}
{"molecule": "superoxide dismutase: enzyme from Sigma, non-immunoglobulin control protein", "values": [{"measurement": "ability to reduce 1O2 (produce reactive oxygen species from singlet oxygen), panel of other proteins", "setting": "[1]", "result": "do not reduce ^1O2; also recorded: does not reside"}, {"measurement": "rate of hydrogen peroxide generation", "setting": "[1]; superoxide dismutase irradiated in PBS", "result": "the same as irradiation of PBS alone"}]}
{"molecule": "N[C@@H](Cc1c[nH]c2ccccc12)C(=O)O", "note": "[tryptophan]", "values": [{"measurement": "H2O2 production during photo-oxidation", "setting": "[1]; near-UV irradiation, tryptophan 20 μM", "result": "ca. 0.5 mole equivalents"}]}
{"molecule": "β-galactosidase: most efficient non-immunoglobulin protein at generating H2O2", "values": [{"measurement": "H2O2 photo-production", "setting": "[1]; near-UV irradiation, from its 39 Trp residues", "result": 5.9, "unit": "mol eq."}]}
{"molecule": "bovine serum albumin: non-specific protein control", "values": [{"measurement": "bacterial killing", "setting": "E. coli; 20 μM", "result": "no bacterial killing"}, {"measurement": "bacterial killing", "setting": "S. typhimurium; 20 μM", "result": "no bacterial killing"}]}
{"molecule": "CC1=C(CCC(=O)O)c2cc3[nH]c(cc4nc(cc5[nH]c(cc1n2)c(C)c5C(C)O)C(C)=C4C(C)O)c(C)c3CCC(=O)O", "note": "(centres unmarked) [hematoporphyrin IX]", "values": [{"measurement": "bactericidal activity of sensitizer alone", "setting": "E. coli XL1-blue; 40 μM, white light 2.7 mW cm^−2, 1 h, PBS pH 7.4, 4±1° C.", "result": "negligible bactericidal activity"}, {"measurement": "bactericidal activity of sensitizer alone", "setting": "E. coli O112a,c", "result": "negligible bactericidal activity"}]}
{"molecule": "O=C(O)CN(CCN(CC(=O)O)CC(=O)O)CC(=O)O", "note": "[EDTA]", "values": [{"measurement": "effect on survival of bacteria in the assay system", "setting": "E. coli; 2 mM", "result": "no effect on the survival of bacteria"}, {"measurement": "effect on survival of bacteria in the assay system", "setting": "S. typhimurium; 2 mM", "result": "no effect on the survival of bacteria"}]}
{"molecule": "O=[O+][O-]", "note": "[Clone O3, ozone]", "values": [{"measurement": "half-life (t½)", "setting": "[2]", "result": 66, "unit": "s"}, {"measurement": "half-life (t½)", "setting": "[2]; listed as ozone", "result": 6, "unit": "s"}]}
{"molecule": "B1", "values": [{"measurement": "ability to reduce 1O2 (produce reactive oxygen species from singlet oxygen), panel of other proteins", "setting": "[1]", "result": "do not reduce ^1O2"}, {"measurement": "ability to reduce 1O2 (produce reactive oxygen species from singlet oxygen), panel of other proteins", "setting": "[1]; listed as RNaseA", "result": "does not reside"}]}
